From PMC12843137, “Fine-Tuning Side Chain Substitutions: Impacts on the Lipophilicity–Solubility–Permeability Interplay in Macrocyclic Peptides” (Marine Drugs, 2025)
Values after ≈ are worked out from the molar mass of the structure shown. Marks after values point to notes of the source that are not given here.

Columns and labels:
[1] = Kinetic solubility in PBS pH 7.4; assay type: physicochemical; conditions: PBS pH 7.4, 25 °C; for solubility at 2 h: sodium phosphate buffer (PBS), 25 °C, pH 7.4, aqueous buffer, kinetic from dmso stock
Description: (§1) One explanation for the high IC50 values (i.e., low activity) of the new compounds is their potential poor solubility in aqueous solution or inadequate lipophilicity. To investigate this hypothesis, we determined kinetic solubility in […] phosphate buffer at pH 7.4 (Table 1). […] The remaining two compounds, BE and 29, show low solubilities (<0.1 μM). […] Additionally, since approximately 95% of drugs are ionizable, assessment of lipophilicity at pH 7.4 (log D7.4) is essential during the initial phases of drug discovery. In this study, we employ the shake-flask method to evaluate this property. […] Because lipophilicity directly reflects compound–membrane interaction, the activity of these compounds against PANC-1 cells likely stems from their interaction with the cell membrane.
Solubility is determined in 100 mM sodium phosphate buffer (PBS), pH 7.4. The stock solutions of test compound and control compound progesterone are prepared in DMSO at a concentration of 10 mM. 30 µL of working solutions of each sample is placed in order into their proper 96-well rack. 970 µL of PBS pH 7.4 is added into each vial of the cap-less Solubility Sample plate. The assay is performed in duplicate. Add one stir stick to each vial and seal using a molded PTFE/Silicone plug. Then the Solubility Sample plate is transferred to the Eppendorf Thermomixer Comfort plate shaker and shaken at 25 °C at 1100 RPM for 2 h. After completion of the 2 h, plugs are removed and the stir sticks are removed using a big magnet, the samples from the Solubility Sample plate are transferred into the filter plate. Using the Vacuum Manifold, all the samples are filtered. Aliquot of 5 µL is taken from the filtrate, followed by addition of 5 µL DMSO and 490 µL of a mixture of H2O and acetonitrile (1:1 in v/v). 200 μL of diluent is transferred to a new 96-well plate for LC-MS/MS analysis (see SI Bioanalytical Method for Solubility Measurement). The dilution factor is changed according to the solubility values and the LC-MS signal response.
MRM) / -4500 v (negative MRM). […]
13. Bioanalytical Method for Solubility Measurement
MS analysis: Triple Quad TM 5500 instrument from AB Inc (Canada) with an ESI interface
Injection volume: 1 μL, 3 μL, 5 μL or 10 μL
Column: ACQUITY UPLC BEH C18 (2.1 × 50 mmI.D. S-1.7 μm, 12 nm) Column
Mobile phase: 0.1% Ammonium hydroxide solution in water (A) and 0.1% Ammonium hydroxide solution
Column: XSelect Hss T3 2.5μm (2.1 × 50 mm) Column XP
Mobile phase: 0.1% formic acid in water (A) and 0.1% formic acid in acetonitrile (B)

[2] = log D7.4 by shake-flask method (1-octanol/PBS); assay type: physicochemical; conditions: 1-octanol/PBS, pH 7.4, 1-Octanol/PBS pH 7.4, shake-flask
Description: as §1
The basic solution is titrated with the acidic solution to achieve pH 7.4, with the pH verified and adjusted to 7.4 ± 0.1 on the experiment day. Saturated 1-octanol and PBS (pH 7.4) are also prepared. The stock solutions of test compounds and control compound progesterone are prepared in DMSO at a concentration of 10 mM (0.666 mM: compound 39). The detailed procedure for log D determinations can be found in the SI. […]
4. Procedure for log D determinations […]
µL of phosphate buffer saturated 1-octanol to get a concentration of 300 µM working solution. 20 µL of 300 µM compound solution is placed in order into their proper 96-well rack followed by the addition of 980 µL of 1-octanol saturated phosphate buffer. One stir stick is added to each vial and vials are sealed molded PTFE/Silicone plugs. Then the log D plate is transferred to the Eppendorf Thermomixer Comfort plate shaker and shaken at 25°C at 1,100 RPM for 1 h. The assay is performed in duplicate. After completion of 1 h, the stir sticks are removed using a big magnet. The samples are then centrifuged at 25°C at 20,000 g for 20 minutes to separate the phases, and syringe is used to remove the lower (buffer) phases to the empty tubes. Then the buffer phase is diluted with the same volume of acetonitrile/ultrapure water (50%/50%) for LC-MS/MS analysis. 300 µM working solution is diluted with acetonitrile/ultrapure water (50%/50%) to achieve a concentration of 3 µM. Then the 3 µM solution is diluted to 0.3 µM to get the total samples by adding 4 volumes of acetonitrile/ultrapure water (50%/50%) and 5 volumes of 1-octanol saturated Phosphate Buffer for LC-MS/MS analysis. […]
test compounds and control compound is placed in order into their 2.0 mL deep well plate, 500 µL of […]
followed by the addition of 500 µL of saturated PBS (pH 7.4). Seal the plate using a Silicone sealing mat.
Then the log D plate is transferred to the Eppendorf Thermomixer Comfort plate shaker and shaken at 25°C at 2,000 RPM for 2 h. After completion of 2 h, the samples are then centrifuged at 25°C at 3,220 g for 30 minutes to separate the phases, and pipette are used to remove the upper (1-octanol) and lower (buffer) phases to the empty tubes, respectively. Aliquots of 50 µL are taken from upper phases followed by addition of 450 µL of acetonitrile (containing internal standards (IS, 200 nM labetalol, 100 nM tolbutamide and 100 nM ketoprofen)). Mix with a pipette, and then aliquots of 50 µL are taken from the diluent followed by addition of 450 µL of acetonitrile (containing internal standards (IS, 200 nM labetalol, 100 nM tolbutamide and 100 nM ketoprofen)). […]

[3] = tested on: PANC-1 cells; experiment: CCK-8 antiproliferative assay, PANC-1; assay type: cell-based; conditions: Homo sapiens, CCK-8, 72 h, mean of three independent experiments
Description: The inhibitory activities against human pancreatic cancer PANC-1 cells of the synthesized compounds were evaluated by CCK-8 assay.
Human pancreatic cancer cell lines PANC-1, PATU8988T and BxPC3 were purchased from the Cancer Institute & Hospital of the Chinese Academy of Medical Sciences (Shanghai, China). All three cell lines were cultured in RPMI-DMEM medium containing 10% fetal bovine serum, cultured at a constant temperature of 37 °C in a humidified incubator with 5% CO2.
Pancreatic cancer cells are seeded into 96-well plates. After a proliferation time of 16 h, different concentrations of compounds are added into the corresponding wells and incubated for 72 h. 10 μL of CCK-8 solution is added into each well and incubated for 1–4 h at 37 °C. Shake the plates and read the OD value of each well at 450 nm on a microplate reader.

| solubility at 2 h [1] | logD [2] | Solubility ([1]; 2 h) | IC50 [3] | SMILES |
| --- | --- | --- | --- | --- |
| 210 µM (≈ 139 µg/mL) | > 5 |  |  | CCCCCCCCCCCCCC1OC(=O)CN(C)C(=O)C=CC(CN2CCN(C)CC2)NC(=O)CNC(=O)C(C)(O)C(=O)C1C (centres unmarked) [BE-NMP] |
| < 0.1 µM | 3.87 | <0.063 * µM | > 100 µM | CCCCOc1ccc(-c2ccc(-c3ccc(Cn4cc(CCCCC[C@H]5OC(=O)CN(C)C(=O)/C=C/[C@@H](CN6CCN(C)CC6)NC(=O)CNC(=O)[C@@](C)(O)C(=O)[C@H]5C)nn4)cc3)cc2)cc1 [Compound 29] |
| 268 µM (≈ 207 µg/mL) |  |  | > 100 µM | CC1C(=O)C(C)(O)C(=O)NCC(=O)NC(CN2CCN(C)CC2)C=CC(=O)N(C)CC(=O)OC1CCCCc1cn(CCCCCCCCNC(=N)N)nn1 (centres unmarked) [Compound 31] |
| 259 µM (≈ 252 µg/mL) | 0.93 |  | > 100 µM | C[C@@H]1C(=O)[C@](C)(O)C(=O)NCC(=O)N[C@H](CN2CCN(C)CC2)/C=C/C(=O)N(C)CC(=O)O[C@H]1CCCCCc1cn(CCCCCCCNc2cccc3c2CN(C2CCC(=O)NC2=O)C3=O)nn1 (some centres unmarked) [Compound 40] |
